Where a name gives a salt, the structure may show the parent alone.
Columns and labels:
[1] = system: P388-D1 mouse leukemia cell line; assay: In vitro cytotoxicity (MTT), P388-D1; type: cell-based; conditions: Mus musculus, P388D1, 72 h, read-out: In Vitro Cytotoxicity (IC50), P388-D1; Table 2; ADR value marked *: single test
Procedure: (§1) Metabolic activity was measured by the cells' ability to reduce the tetrazolium dye, 3-(4,5-dimethylthiazol-2-yl)-2,5-diphenyltetrazolium bromide (MTT), to a quantifiable colored formasan derivative. Surviving cells reduce the MTT dye. The inhibitory concentrations of killing 50% of the cells (IC50 s) were calculated. Testing was in accord with the following protocol:
(§2) Test compounds and a reference antineoplastic agent, ADRIAMYCIN (doxorubicin hydrochloride), were dissolved in dimethyl sulfoxide (DMSO) and diluted, first with Earle's Balanced Salt Solution, followed by culture medium, to twice the highest concentration of the compound to be tested. From this concentrated stock, two-fold serial dilutions were prepared in 96-well microtiter trays, each well containing twice the desired final concentration of the compound. Each concentration was tested in triplicate and compared to triplicate drug-free controls.
(§3) The cells were grown in the same medium used for diluting the compounds. Adherent cells were harvested by trypsinization according to the following procedure:
(§4) After harvesting by trypsinization, viable cell counts were determined and cell density was adjusted to 25,000 cells/mL. Inoculum (0.1 mL) was then added to each well for a final concentration of 2,500 cells per well. Addition of the inoculum was used to dilute the test compounds to the desired concentration.
(§5) Microtiter trays were incubated for three days at 36° C. in a humidified atmosphere containing 5% carbon dioxide.
(§6) After three days, 20 microliters of 5 mg/mL MTT in phosphate-buffered solution were added to each well of the microtiter trays. The microtiter trays were then returned to the incubator for two to four hours to allow the surviving cells to reduce the dye. After this incubation, both the medium and the unreduced dye were removed by aspiration. DMSO was added to each well to dissolve the water-insoluble, colored end product of the dye reduction for spectrophotometric measurement at 570 nm.
(§7) The results obtained which clearly show the cytotoxicity of the compounds of Examples 5, 6, 7 and 8 against […] tumor cell lines A549, HCT-8, HT-29 and P388-D1, are illustrated in Table 1. (A549 is a human lung cancer cell line; HCT-8 is a human colon cancer cell line; HT-29 is a human colon cancer cell line; and P388-D1 is a mouse leukemia cell line.)

[2] = system: HT-29 human colon cancer cell line; assay: In vitro cytotoxicity (MTT), HT-29; type: cell-based; conditions: HT-29, 72 h, read-out: In Vitro Cytotoxicity (IC50), HT-29, Table 2, ADR: average of two tests
Procedure: as §1, §2, §3, §4, §5, §6, §7

[3] = system: P388-ADR(0.0), ADRIAMYCIN-resistant variant of P388; assay: In vitro cytotoxicity (MTT), P388-ADR(0.0); type: cell-based; conditions: Mus musculus, 72 h, inoculum grown in drug-free medium, Table 2
Procedure: as §1, §2, §3, §4, §5, §6
(§8) Compounds from Examples 4, 6, 8, 9 and 10 were additionally tested against human and murine tumor cell lines A549, HT-29, P388-D1, P388, P388-ADR(0.0), P388-ADR(0.1) and B16F109. (P388 is a mouse leukemia cell line similar to P388-D1, but animal-passaged; P388-ADR (0.0) is an ADRIAMYCIN-resistant variant of P388, the inoculum of which is grown in drug-free medium; P388-ADR (0.1) is an ADRIAMYCIN-resistant variant of P388, the inoculum of which is grown in medium with 0.1 mcg.ml ADRIAMYCIN; and B16F10 is a mouse melanoma.) The results are presented in Table 2; as shown in the table, the compounds of the present invention are effective cytotoxic agents even against the ADRIAMYCIN-resistant cell line P388-ADR.

[4] = system: P388 mouse leukemia cell line; assay: In vitro cytotoxicity (MTT), P388; type: cell-based; conditions: P388, 72 h, read-out: In Vitro Cytotoxicity (IC50)
Procedure: as §1, §2, §3, §4, §5, §6, §8

[5] = system: A549 human lung cancer cell line; assay: In vitro cytotoxicity (MTT), A549; type: cell-based; conditions: A549, 72 h, read-out: In Vitro Cytotoxicity (IC50), A549, Table 2, ADR: average of two tests
Procedure: as §1, §2, §3, §4, §5, §6, §7

[6] = system: P388-ADR(0.1), ADRIAMYCIN-resistant variant of P388; assay: In vitro cytotoxicity (MTT), P388-ADR(0.1); type: cell-based; conditions: Mus musculus, 72 h, inoculum grown with 0.1 mcg.ml ADRIAMYCIN, Table 2, ADR value marked *: single test
Procedure: as §1, §2, §3, §4, §5
as §6, with “nm. […]” for “nm.”

B16F10 mouse melanoma = assay: In vitro cytotoxicity (MTT), B16F10; type: cell-based; conditions: B16-F10, 72 h, read-out: In Vitro Cytotoxicity (IC50)
Procedure: as §1, §2, §3, §4, §5, §6, §8

[7] = system: C-26 colon adenocarcinoma; assay: In vivo activity against C-26 implanted subcutaneously (Example 44); parameters: species or system mouse
Procedure: (§9) The title compound of Example 37 above was tested against solid tumors in mice, using 1,3-bis(2-chloroethyl)-1-nitrosourea (BCNU) as a positive control. The tumor lines were M5076, an ovarian sarcoma implanted intraperitoneally (IP), and C-26, a colon adenocarcinoma, implanted intraperitoneally (IP) and subcutaneously (SC) in separate trials.
(§10) All drugs were administered in 5% aqueous dextrose or other suitable diluent. Drug efficacy was determined by prolonged survival times of the test animals or reduced tumor mass as compared to negative controls. Test groups consisted of 10 mice. Control groups consisted of 20 mice. Animals were of one sex and of similar weight. Prior to testing, the tumor cell lines were propagated in BALB/cj mice. Tumor implants were aliquots of a donor pool brei,
For the C-26 SC trial, the tumor was implanted SC into mice on day 0. The test compound was administered four times a day IP from day 1 to day 9 for a total of nine days. BCNU was administered four times a day on days 1, 5, and 9. The mean tumor masses were determined on day 11 and day 21, and the experiment terminated on day 60. The mean tumor mass (MTM) inhibition value of % MTM(T/C) was calculated, which value represents the ratio of treated to control group MTM's expressed as a percentage.

Aqueous solubility = type: physicochemical; conditions: water
Description: The effect of peptidyl substitution on the solubility of the compounds of the invention was examined by dissolving samples thereof in water.

M5076 ovarian sarcoma = assay: In vivo activity against M5076 implanted intraperitoneally (Example 44); parameters: species or system mouse
Procedure: as §9, §10
(§11) In the IP trials, the mean survival time (MST) of the groups of mice was determined, not counting animals surviving at the conclusion of the trial, and the mean lifespan comparison value of % MST(T/C) calculated, which value represents the ratio of treated to control group MST's expressed as a percentage.
For M5076 ovarian sarcoma, the tumor was implanted IP into BDF1 mice on day 0. The test compound was administered four times a day IP from day 1 to day 9 for a total of nine days.

[8] = system: C-26 colon adenocarcinoma; assay: In vivo activity against C-26 implanted intraperitoneally (Example 44); parameters: species or system mouse
Procedure: as §9, §10, §11
For C-26 colon adenocarcinoma, the tumor was implanted into CD2 F1 mice, IP and SC in separate trials. For the C-26 IP trial, the tumor was implanted IP on day 0. The test compound were administered four times a day IP from day 1 to day 9 for a total of nine days. BCNU was administered four times a day on days 1, 5 and 9.

[9] = day 11, 10 mg/kg, compound 37 days 1-9, BCNU days 1, 5, 9
[10] = day 21, 10 mg/kg, compound 37 days 1-9, BCNU days 1, 5, 9
[11] = 10 mg/kg, compound 37 days 1-9, BCNU days 1, 5, 9

Cc1ccc2c(c1)Oc1c(N3CCC(NC(=O)[C@H](C)N)C3)c(F)cc3c(=O)c(C(=O)O)cn-2c13 (stereo partly drawn) [Example 9, 1-(3-alanylaminopyrrolidin-1-yl)-2-fluoro-9-methyl-4-oxo-4H-quino[2,3,4-i,j][1,4]benzoxazine-5-carboxylic acid hydrochloride]
IC50 [1]: 0.081 µg/mL | IC50 [2]: 0.075 µg/mL | IC50 [3]: 0.19 µg/mL | IC50 [4]: 0.062 µg/mL | IC50 [5]: 0.23 µg/mL | IC50 [6]: 0.18 µg/mL | IC50 (B16F10 mouse melanoma): 0.048 µg/mL

C[C@H](N)C(=O)N[C@@H](C)C(=O)NC1CCN(c2c(F)cc3c(=O)c(C(=O)O)cn4c3c2Oc2ccccc2-4)C1 (stereo partly drawn) [Example 37, 1-(3-Alanylalanylaminopyrrolidin-1-yl)-2-fluoro-4-oxo-4H-quino[2,3,4-i,j][1,4]benzoxazine-5-carboxylic acid hydrochloride]
% MTM(T/C) ([7]; day 11, 2.5 mg/kg): 97% | MTM ([7]; day 11, 2.5 mg/kg): 302 mg | % MTM(T/C) ([7]; day 11, 5 mg/kg): 66% | MTM ([7]; day 11, 5 mg/kg): 205 mg | % MTM(T/C) [7, 9]: 24% | MTM [7, 9]: 74 mg | % MTM(T/C) ([7]; day 11, 20 mg/kg): 0% | MTM ([7]; day 11, 20 mg/kg): 0 mg | % MTM(T/C) ([7]; day 21, 2.5 mg/kg): 79% | MTM ([7]; day 21, 2.5 mg/kg): 2617 mg | % MTM(T/C) ([7]; day 21, 5 mg/kg): 75% | MTM ([7]; day 21, 5 mg/kg): 2462 mg | % MTM(T/C) [7, 10]: 41% | MTM [7, 10]: 1336 mg | % MTM(T/C) ([7]; day 21, 20 mg/kg): 5% | MTM ([7]; day 21, 20 mg/kg): 169 mg | activity against tumor implanted subcutaneously ([7]; days 11 and 21, in words): significantly active | solubility (Aqueous solubility): 28.2 mg/mL | test animals that survived the trial (M5076 ovarian sarcoma; 12.5 mg/kg (footnote b)): One of ten test animals survived the trial | % MST(T/C) (M5076 ovarian sarcoma; 12.5 mg/kg IP days 1-9): 215% | MST (M5076 ovarian sarcoma; 12.5 mg/kg IP days 1-9): 44.6 | Toxicity due to the test compound (M5076 ovarian sarcoma; 25 mg/kg (footnote a)): Toxicity due to the test compound noted | % MST(T/C) (M5076 ovarian sarcoma; 25 mg/kg IP days 1-9): 45% | MST (M5076 ovarian sarcoma; 25 mg/kg IP days 1-9): 9.3 | Toxicity due to the test compound (M5076 ovarian sarcoma; 50 mg/kg (footnote a)): Toxicity due to the test compound noted | % MST(T/C) (M5076 ovarian sarcoma; 50 mg/kg IP days 1-9): 21% | MST (M5076 ovarian sarcoma; 50 mg/kg IP days 1-9): 4.4 | Toxicity due to the test compound (M5076 ovarian sarcoma; 100 mg/kg (footnote a)): Toxicity due to the test compound noted | % MST(T/C) (M5076 ovarian sarcoma; 100 mg/kg IP days 1-9): 15% | MST (M5076 ovarian sarcoma; 100 mg/kg IP days 1-9): 3.2 | improvement in survival time (M5076 ovarian sarcoma; M5076 IP, in words): significant improvement in survival time | % MST(T/C) ([8]; 2.5 mg/kg IP days 1-9): 147% | MST ([8]; 2.5 mg/kg IP days 1-9): 30.3 | % MST(T/C) ([8]; 5 mg/kg IP days 1-9): 174% | MST ([8]; 5 mg/kg IP days 1-9): 36.0 | % MST(T/C) [8, 11]: 195% | MST [8, 11]: 40.2 | test animals that survived the trial ([8]; 20 mg/kg (footnote a)): Three of ten test animals survived the trial | % MST(T/C) ([8]; 20 mg/kg IP days 1-9): 197% | MST ([8]; 20 mg/kg IP days 1-9): 40.7 | improvement in survival time ([8]; C-26 IP, in words): significant improvement in survival time

— patent US5624924A, “Quinobenzothiazine antineoplastic agents” (priority 1994, dated 1997)
